Results: patent US11535643B2, “Macrolides with modified desosamine sugars and uses thereof” (President and Fellows of Harvard College, priority 2015, dated 2022)

What was measured:
[1] = from C=CCOC(=O)NC[C@@H]1C[C@H](N(C)C)[C@@H](OC(=O)OC)[C@H](O[C@H]([C@@H](C)C2=C(C)C(=O)OC(C)(C)O2)[C@@](C)(C[C@@H](C)CN[C@H](C)[C@H]2N(CCCCN=[N+]=[N-])C(=O)O[C@]2(C)[C@H](O)CC)OC)O1; ester bond; chlorobenzene; 1.0 mM; 150.0 °C; 16.0 h
E. coli = test: Broth dilution MIC determination (CLSI) against E. coli strains; format: cell-based
Outline: (§1)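 Macrolide MICs come from CLSI-standard broth dilution testing of distinct strains, several multidrug-resistant, selected with attention to macrolide resistance mechanisms; two reference macrolides, azithromycin and solithromycin, were included.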

H. influenzae = test: Broth dilution MIC determination (CLSI) against H. influenzae strains; format: cell-based
Outline: as §1

A. baumannii = test: Broth dilution MIC determination (CLSI) against A. baumannii strains; format: cell-based
Outline: as §1

S. pneumoniae = test: Broth dilution MIC determination (CLSI) against S. pneumoniae strains; format: cell-based
Outline: as §1

S. pyogenes = test: Broth dilution MIC determination (CLSI) against S. pyogenes strains; format: cell-based
Outline: as §1

E. faecalis = test: Broth dilution MIC determination (CLSI) against E. faecalis strains; format: cell-based
Outline: as §1

S. aureus = test: Broth dilution MIC determination (CLSI) against S. aureus strains; format: cell-based
Outline: as §1

K. pneumoniae = test: Broth dilution MIC determination (CLSI) against K. pneumoniae strains; format: cell-based
Outline: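 Azithromycin and solithromycin served as controls; MICs were obtained by standard CLSI broth dilution on a strain panel including multidrug-resistant and macrolide-resistant isolates.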

P. aeruginosa = test: Broth dilution MIC determination (CLSI) against P. aeruginosa strains; format: cell-based
Outline: as §1

C=CCOC(=O)NC[C@@H]1C[C@H](N(C)C)[C@@H](OC(=O)OC)[C@H](O[C@@H]2[C@@H](C)C(=O)[C@@H](C)C(=O)O[C@H](CC)[C@@]3(C)OC(=O)N(CCCCN=[N+]=[N-])[C@@H]3[C@@H](C)NC[C@H](C)C[C@@]2(C)OC)O1
70%: ring closure, yield of all isomers [1]

CC[C@H]1OC(=O)[C@H](C)C(=O)[C@H](C)[C@@H](O[C@@H]2OC(Cn3cc(-c4ccccn4)nn3)CC(N(C)C)C2O)[C@](C)(OC)C[C@@H](C)CN[C@H](C)[C@H]2N(CCCCn3cc(-c4cccc(N)c4)nn3)C(=O)O[C@]12C (some centres unmarked) [FSM-22366]
1 µg/mL: MIC S. pyogenes macrolide-resistant (S. pyogenes; macrolide-resistant)
4 µg/mL: MIC H. influenzae ATCC49247 (H. influenzae; ATCC49247) | MIC H. influenzae erythro > 4, azithro 1 (H. influenzae; erythro > 4, azithro 1)
32 µg/mL: MIC A. baumannii imipenem-resistant (A. baumannii; imipenem-resistant) | MIC S. aureus ATCC29213 (S. aureus; ATCC29213) | MIC K. pneumoniae TEM-10 (K. pneumoniae; TEM-10)
<0.03125 µg/mL: MIC S. pneumoniae ATCC49619 (S. pneumoniae; ATCC49619) | MIC S. pneumoniae erm B + tet(M, O) genotype (S. pneumoniae; erm B + tet(M, O) genotype) | MIC S. pyogenes ATCC19615 (S. pyogenes; ATCC19615)
2 µg/mL: MIC E. faecalis ATCC29212 (E. faecalis; ATCC29212)
>32 µg/mL: MIC E. coli ATCC25922 (E. coli; ATCC25922) | MIC E. coli CTX-M-14 (E. coli; CTX-M-14) | MIC E. coli NDM-1 (E. coli; NDM-1) | MIC A. baumannii ATCC19606 (A. baumannii; ATCC19606) | MIC A. baumannii IMP-4 (A. baumannii; IMP-4) | MIC A. baumannii chromosomal class C (A. baumannii; chromosomal class C) | MIC S. pneumoniae erm B + mef A genotype (S. pneumoniae; erm B + mef A genotype) | MIC E. faecalis Vancomycin-resistant (E. faecalis; Vancomycin-resistant) | MIC S. aureus MRSA: USA100 (S. aureus; MRSA: USA100) | MIC S. aureus MRSA: USA300 (S. aureus; MRSA: USA300) | MIC S. aureus USA600, GISA (S. aureus; USA600, GISA) | MIC S. aureus erm A genotype (S. aureus; erm A genotype) | MIC K. pneumoniae KPC-2 (K. pneumoniae; KPC-2) | MIC K. pneumoniae SHV-12 (K. pneumoniae; SHV-12) | MIC P. aeruginosa ATCC27853 (P. aeruginosa; ATCC27853) | MIC P. aeruginosa HPA101-1477 (P. aeruginosa; HPA101-1477)
16 µg/mL: MIC E. coli TEM-1 (E. coli; TEM-1) | MIC K. pneumoniae ATCC10031 (K. pneumoniae; ATCC10031)
